*1 amine or outer side, *2 acyl side, *3 side chain or, on linkers, in order; H or OH if unused. Where a SMILES comes first, the peptide text is derived from it. Side-chain parts run from the residue outwards. The star is where a group is joined. C18 diacid = O=C(O)CCCCCCCCCCCCCCCCC(=O)*; γGlu = O=C(O)[C@H](CCC(=O)[*:2])N[*:1]; Isovaleryl = CC(C)CC(=O)*; AEEA = NCCOCCOCC(=O)O
target: T1, Human Neuropeptide Y2 Receptor (Homo sapiens, UniProt P49146); test: Radioligand binding competition assay (RLB); conditions: Table 3; human 125I-PYY (1-36) 0.02 nM, Y2 receptor membranes; read-out: Ki
T1 construct: purchased CHEMICON HTS066M
T1 sequence (P49146 1-381): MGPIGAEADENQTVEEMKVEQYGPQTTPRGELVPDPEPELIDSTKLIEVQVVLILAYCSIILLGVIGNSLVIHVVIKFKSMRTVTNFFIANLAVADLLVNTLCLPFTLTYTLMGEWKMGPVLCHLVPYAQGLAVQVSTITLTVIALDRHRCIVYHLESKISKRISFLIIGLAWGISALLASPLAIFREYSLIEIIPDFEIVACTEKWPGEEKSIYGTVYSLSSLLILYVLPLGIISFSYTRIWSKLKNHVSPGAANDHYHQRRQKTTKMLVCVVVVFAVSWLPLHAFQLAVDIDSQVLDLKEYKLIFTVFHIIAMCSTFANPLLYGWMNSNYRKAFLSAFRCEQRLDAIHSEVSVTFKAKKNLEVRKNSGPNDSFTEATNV
Summary of the method: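 Competition binding on human Y2 receptor membranes, 0.5 μg protein/well, in 50 mM HEPES, 5 mM MgCl2, 1 mM CaCl2, pH 7.4, 0.2% ovalbumin; peptides diluted from 1 mM DMSO stocks.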

| Ki [nM] | Structure (SMILES) |
| --- | --- |
| 6.96 | CC(C)CC(=O)N[C@@H](C)C(=O)N1CCC[C@H]1C(=O)N[C@@H](CCC(=O)O)C(=O)N[C@@H](CCCCNC(=O)COCCOCCNC(=O)COCCOCCNC(=O)CC[C@H](NC(=O)CCCCCCCCCCCCCCCCC(=O)O)C(=O)O)C(=O)N1CCC[C@H]1C(=O)N[C@@H](CCC(=O)O)C(=O)N[C@@H](CCC(=O)O)C(=O)N[C@@H](CCC(=O)O)C(=O)N[C@@H](C)C(=O)N[C@@H](CO)C(=O)N1CCC[C@H]1C(=O)N[C@@H](CCC(=O)O)C(=O)N[C@@H](CCC(=O)O)C(=O)N[C@H](C(=O)N[C@@H](CCC(N)=O)C(=O)N[C@@H](CCCNC(=N)N)C(=O)N[C@@H](Cc1ccc(O)cc1)C(=O)N[C@@H](Cc1ccc(O)cc1)C(=O)N[C@H](C(=O)N[C@@H](CO)C(=O)N[C@@H](CC(C)C)C(=O)N[C@@H](CCCNC(=N)N)C(=O)N[C@@H](Cc1c[nH]cn1)C(=O)N[C@@H](Cc1ccc(O)cc1)C(=O)N[C@@H](Cc1ccc(O)cc1)C(=O)N[C@@H](CC(N)=O)C(=O)N[C@@H](Cc1c[nH]c2ccccc12)C(=O)N[C@@H](CC(C)C)C(=O)N[C@H](C(=O)N[C@@H](CCCNC(=N)N)C(=O)N[C@@H](CCC(N)=O)C(=O)N[C@@H](CCCNC(=N)N)C(=O)N[C@@H](Cc1ccc(O)cc1)C(N)=O)[C@@H](C)O)C(C)C)[C@@H](C)O [Compound 80, N{alpha-4}-(3-methylbutanoyl)-N{epsilon-7}-[2-(2-{2-[2-(2-{2-[(4S)-4-carboxy-4-(17-carboxyheptadecanamido)butanamido]ethoxy}ethoxy)acetamido]ethoxy}ethoxy)acetamido]-[4A,7K,9E,11E,17T,18Q,22V,28Y,30W,31L]hPYY (4-36)] |
| 1.56 | CC(C)CC(=O)N[C@@H](C)C(=O)N1CCC[C@H]1C(=O)N[C@@H](CCC(=O)O)C(=O)N[C@@H](CCCCNC(=O)COCCOCCNC(=O)COCCOCCNC(=O)CC[C@H](NC(=O)CCCCCCCCCCCCCCCCC(=O)O)C(=O)O)C(=O)N1CCC[C@H]1C(=O)N[C@@H](CCC(=O)O)C(=O)N[C@@H](CCC(=O)O)C(=O)N[C@@H](CC(=O)O)C(=O)N[C@@H](C)C(=O)N[C@@H](CO)C(=O)N1CCC[C@H]1C(=O)N[C@@H](CCC(=O)O)C(=O)N[C@@H](CCC(=O)O)C(=O)N[C@@H](CC(C)C)C(=O)N[C@@H](CCC(N)=O)C(=O)N[C@@H](CCCNC(=N)N)C(=O)N[C@@H](Cc1ccc(O)cc1)C(=O)N[C@@H](C)C(=O)N[C@H](C(=O)N[C@@H](CO)C(=O)N[C@@H](CC(C)C)C(=O)N[C@@H](CCCNC(=N)N)C(=O)N[C@@H](Cc1c[nH]cn1)C(=O)N[C@@H](Cc1ccc(O)cc1)C(=O)N[C@@H](Cc1ccc(O)cc1)C(=O)N[C@@H](CC(N)=O)C(=O)N[C@@H](Cc1c[nH]c2ccccc12)C(=O)N[C@@H](CC(C)C)C(=O)N[C@H](C(=O)N[C@@H](CCCNC(=N)N)C(=O)N[C@@H](CCC(N)=O)C(=O)N[C@@H](CCCNC(=N)N)C(=O)N[C@@H](Cc1ccc(O)cc1)C(N)=O)[C@@H](C)O)C(C)C [Compound 85, N{alpha-4}-(3-methylbutanoyl)-N{epsilon-7}-[2-(2-{2-[2-(2-{2-[(4S)-4-carboxy-4-(17-carboxyheptadecanamido)butanamido]ethoxy}ethoxy)acetamido]ethoxy}ethoxy)acetamido]-[4A,7K,9E,18Q,21A,22V,28Y,30W,31L]hPYY (4-36)] |
| 1.19 | CC(C)CC(=O)N[C@@H](C)C(=O)N1CCC[C@H]1C(=O)N[C@@H](CCC(=O)O)C(=O)N[C@@H](CCCCNC(=O)COCCOCCNC(=O)COCCOCCNC(=O)CC[C@H](NC(=O)CCCCCCCCCCCCCCCCC(=O)O)C(=O)O)C(=O)N1CCC[C@H]1C(=O)N[C@@H](CCC(=O)O)C(=O)N[C@@H](C)C(=O)N[C@@H](CC(=O)O)C(=O)N[C@@H](C)C(=O)N[C@@H](CO)C(=O)N1CCC[C@H]1C(=O)N[C@@H](CCC(=O)O)C(=O)N[C@@H](CCC(=O)O)C(=O)N[C@@H](CC(C)C)C(=O)N[C@@H](CCC(N)=O)C(=O)N[C@@H](CCCNC(=N)N)C(=O)N[C@@H](Cc1ccc(O)cc1)C(=O)N[C@@H](CCC(=O)O)C(=O)N[C@H](C(=O)N[C@@H](CO)C(=O)N[C@@H](CC(C)C)C(=O)N[C@@H](CCCNC(=N)N)C(=O)N[C@@H](Cc1c[nH]cn1)C(=O)N[C@@H](Cc1ccc(O)cc1)C(=O)N[C@@H](Cc1ccc(O)cc1)C(=O)N[C@@H](CC(N)=O)C(=O)N[C@@H](Cc1c[nH]c2ccccc12)C(=O)N[C@@H](CC(C)C)C(=O)N[C@H](C(=O)N[C@@H](CCCNC(=N)N)C(=O)N[C@@H](CCC(N)=O)C(=O)N[C@@H](CCCNC(=N)N)C(=O)N[C@@H](Cc1ccc(O)cc1)C(N)=O)[C@@H](C)O)C(C)C [Compound 86, N{alpha-4}-(3-methylbutanoyl)-N{epsilon-7}-[2-(2-{2-[2-(2-{2-[(4S)-4-carboxy-4-(17-carboxyheptadecanamido)butanamido]ethoxy}ethoxy)acetamido]ethoxy}ethoxy)acetamido]-[4A,7K,9E,10A,18Q,21E,22V,28Y,30W,31L]hPYY (4-36)] (Isovaleryl-APEK([AEEA-AEEA-γGlu-C18 diacid])PEADASPEELQRYEVSLRHYYNWLTRQRY-NH2) |
| 1.97 | CC(C)CC(=O)N[C@@H](C)C(=O)N1CCC[C@H]1C(=O)N[C@@H](CCC(=O)O)C(=O)N[C@@H](CCCCNC(=O)COCCOCCNC(=O)COCCOCCNC(=O)CC[C@H](NC(=O)CCCCCCCCCCCCCCCCC(=O)O)C(=O)O)C(=O)N1CCC[C@H]1C(=O)N[C@@H](CCC(=O)O)C(=O)N[C@@H](CCC(=O)O)C(=O)N[C@@H](CC(=O)O)C(=O)N[C@@H](CO)C(=O)N[C@@H](CO)C(=O)N1CCC[C@H]1C(=O)N[C@@H](C)C(=O)N[C@@H](CCC(=O)O)C(=O)N[C@@H](CC(C)C)C(=O)N[C@@H](CCC(N)=O)C(=O)N[C@@H](CCCNC(=N)N)C(=O)N[C@@H](Cc1ccc(O)cc1)C(=O)N[C@@H](Cc1ccc(O)cc1)C(=O)N[C@H](C(=O)N[C@@H](CO)C(=O)N[C@@H](CC(C)C)C(=O)N[C@@H](CCCNC(=N)N)C(=O)N[C@@H](Cc1c[nH]cn1)C(=O)N[C@@H](Cc1ccc(O)cc1)C(=O)N[C@@H](Cc1ccc(O)cc1)C(=O)N[C@@H](CC(N)=O)C(=O)N[C@@H](Cc1c[nH]c2ccccc12)C(=O)N[C@@H](CC(C)C)C(=O)N[C@H](C(=O)N[C@@H](CCCNC(=N)N)C(=O)N[C@@H](CCC(N)=O)C(=O)N[C@@H](CCCNC(=N)N)C(=O)N[C@@H](Cc1ccc(O)cc1)C(N)=O)[C@@H](C)O)C(C)C [Compound 87, N{alpha-4}-(3-methylbutanoyl)-N{epsilon-7}-[2-(2-{2-[2-(2-{2-[(4S)-4-carboxy-4-(17-carboxyheptadecanamido)butanamido]ethoxy}ethoxy)acetamido]ethoxy}ethoxy)acetamido]-[4A,7K,9E,12S,15A,18Q,22V,28Y,30W,31L]hPYY (4-36)] (Isovaleryl-APEK([AEEA-AEEA-γGlu-C18 diacid])PEEDSSPAELQRYYVSLRHYYNWLTRQRY-NH2) |
| 9.61 | CC(C)CC(=O)N[C@@H](C)C(=O)N1CCC[C@H]1C(=O)N[C@@H](CCC(=O)O)C(=O)N[C@@H](CCCCNC(=O)COCCOCCNC(=O)COCCOCCNC(=O)CC[C@H](NC(=O)CCCCCCCCCCCCCCCCC(=O)O)C(=O)O)C(=O)N1CCC[C@H]1C(=O)N[C@@H](CCC(=O)O)C(=O)N[C@@H](CCC(=O)O)C(=O)N[C@@H](CCC(=O)O)C(=O)N[C@@H](C)C(=O)N[C@@H](CCC(=O)O)C(=O)N1CCC[C@H]1C(=O)N[C@@H](CCC(=O)O)C(=O)N[C@@H](CCC(=O)O)C(=O)N[C@@H](CC(C)C)C(=O)N[C@@H](CCC(N)=O)C(=O)N[C@@H](CCCNC(=N)N)C(=O)N[C@@H](Cc1ccc(O)cc1)C(=O)N[C@@H](Cc1ccc(O)cc1)C(=O)N[C@H](C(=O)N[C@@H](CO)C(=O)N[C@@H](CC(C)C)C(=O)N[C@@H](CCCNC(=N)N)C(=O)N[C@@H](Cc1c[nH]cn1)C(=O)N[C@@H](Cc1ccc(O)cc1)C(=O)N[C@@H](Cc1ccc(O)cc1)C(=O)N[C@@H](CC(N)=O)C(=O)N[C@@H](Cc1c[nH]c2ccccc12)C(=O)N[C@@H](CC(C)C)C(=O)N[C@H](C(=O)N[C@@H](CCCNC(=N)N)C(=O)N[C@@H](CCC(N)=O)C(=O)N[C@@H](CCCNC(=N)N)C(=O)N[C@@H](Cc1ccc(O)cc1)C(N)=O)[C@@H](C)O)C(C)C [Compound 89, N{alpha-4}-(3-methylbutanoyl)-N{epsilon-7}-[2-(2-{2-[2-(2-{2-[(4S)-4-carboxy-4-(17-carboxyheptadecanamido)butanamido]ethoxy}ethoxy)acetamido]ethoxy}ethoxy)acetamido]-[4A,7K,9E,11E,13E,18Q,22V,28Y,30W,31L]hPYY (4-36)] |

— patent publication US12559529B2, “NPY2 receptor agonists” (Boehringer Ingelheim International GmbH, priority 2019, dated 2026)
